Experiment in all cases: DTP human tumour cell line panel, 48 h
The subject of experiment [1] is SK-MEL-5.
Experiment [2] deals with A498.
Experiment [3] deals with OVCAR-8.
In experiment [4] the test system is SNB-19.
In experiment [5] the test system is COLO 205.
The subject of experiment [6] is OVCAR-3.
Experiment [7] relates to SK-MEL-28.
Experiment [8] has as its system RPMI-8226.
Experiment [9] deals with SK-OV-3.
In experiment [10] the test system is UACC-257.
Experiment [11] relates to HCC 2998.
For experiment [12], the system named is OVCAR-5.
Experiment [13] relates to DU-145.
Experiment [14] concerns MDA-MB-435.
In experiment [15] the test system is MOLT-4.
In experiment [16] the test system is NCI-H23.
Experiment [17] deals with SN12C.
For experiment [18], the system named is SW-620.
Experiment [19] concerns CCRF-CEM.
Experiment [20] concerns SK-MEL-2.

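1) Cells in 96-well plates. 2) Compound, 48 h, 5 concentrations. 3) Linear interpolation between surrounding doses. 4) Unreached endpoint = highest concentration. Here, GI50 denotes the concentration required for 50% inhibition of growth.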 Calls of active or inactive are those of the source. Cut-off read from the data, not from the text of the source: active = GI50 up to about 1.1 µM and inactive = higher.

Regarding `CCCNCC(O)CNc1ccc(NCC(O)CNCCC)c2c1C(=O)c1ccccc1C2=O` (stereo not given), the GI50 (as a rule, the concentration giving 50% growth inhibition) in [1] was 2.69 µM (inactive); in experiment [2] it was 11.7 µM (inactive); in experiment [3], 2.26 µM (inactive); in experiment [4] it was 1.95 µM (inactive); in [5], 2.31 µM (inactive); in experiment [6], 4.37 µM (inactive). Further, the GI50 was 2.96 µM (inactive) in experiment [7]; 1.69 µM (inactive) in [8]; 2.04 µM (inactive) in experiment [9]; 7.85 µM (inactive) in [10]; 1.38 µM (inactive) in experiment [11]; 1.61 µM (inactive) in [12]. Also, the GI50 in experiment [13] is 6.22 µM (inactive); in experiment [14] it was 2.81 µM (inactive); in experiment [15] it was 1.26 µM (inactive); in [16], 3.24 µM (inactive); in [17] it was 1.78 µM (inactive); in experiment [18], 2.05 µM (inactive). Also, the GI50 in experiment [19] is 0.998 µM (active); in experiment [20], 2.16 µM (inactive).
In the case of `CC1(CNCc2ccccc2)CC(CCc2ccccc2)N(C(=O)c2ccc([N+](=O)[O-])cc2)C1Cc1ccc(O)cc1` (stereo not given), the GI50 in experiment [1] was 5.35 µM (inactive); in [2] it was 12.9 µM (inactive); in experiment [3], 14.4 µM (inactive); in [4], 14.7 µM (inactive); in experiment [5], 6.5 µM (inactive); in [6], 12.1 µM (inactive). The GI50 was 31 µM (inactive) in experiment [7]; 17.3 µM (inactive) in [8]; 17.1 µM (inactive) in experiment [9]; 12.4 µM (inactive) in [10]; 13.1 µM (inactive) in experiment [11]; 17.6 µM (inactive) in experiment [12]. Moreover, the GI50 was 14.7 µM (inactive) in [13]; 14.2 µM (inactive) in experiment [14]; 13.2 µM (inactive) in [15]; 10.3 µM (inactive) in experiment [16]; 6.76 µM (inactive) in experiment [17]; 21.5 µM (inactive) in [18]. In addition, the GI50 is 23.2 µM (inactive) in experiment [19] and 13.6 µM (inactive) in experiment [20].
`Cc1ccc(C(=O)OC[C@H]2CC[C@@H](n3cc(N(C)C4CCCCC4)c(=O)[nH]c3=O)O2)cc1`: the GI50 in experiment [1] is 18.8 µM (inactive); in [2] it was 19.5 µM (inactive); in experiment [3], 28.1 µM (inactive); in [4], 19.3 µM (inactive); in [5], 19.1 µM (inactive); in experiment [6], 21.6 µM (inactive). Further, the GI50 in experiment [7] was 53.1 µM (inactive); in experiment [8], 31.4 µM (inactive); in [9] it was 8.28 µM (inactive); in experiment [10], 32.7 µM (inactive); in [11] it was > 100 µM (inactive); in experiment [12], 26.6 µM (inactive). Moreover, the GI50 in experiment [13] is > 100 µM (inactive); in [14] it was 65.2 µM (inactive); in [15], 30 µM (inactive); in [16], 43.9 µM (inactive); in experiment [17], 20.7 µM (inactive); in experiment [18], 40 µM (inactive). In addition, the GI50 in [19] is 27.4 µM (inactive); in [20] it was 85.7 µM (inactive).
In the case of `N#CCCN(CCC#N)c1ccc(C(/N=N/c2ccccc2)=N\c2ccccc2)cc1`, the GI50 in experiment [1], in [2], in experiment [3], in [4], in experiment [5] and in [6] was > 100 µM (inactive) each time. Further, the GI50 in [7], in experiment [8], in [9], in experiment [10], in [11] and in experiment [12] was > 100 µM (inactive) throughout. Further, the GI50 in experiment [13], in experiment [14], in [15], in experiment [16], in experiment [17] and in experiment [18] was > 100 µM (inactive) in each case. For the same molecule, the GI50 in [19] and in experiment [20] was > 100 µM (inactive) throughout.
With `N#CC1=C(N)N(c2ccccc2)C(c2ccccc2)C1(C#N)C#N` (stereo not given), the GI50 is 13.5 µM (inactive) in experiment [1]; 17.4 µM (inactive) in experiment [2]; 16.2 µM (inactive) in experiment [3]; 18.4 µM (inactive) in [4]; 17.2 µM (inactive) in experiment [5]; 17.8 µM (inactive) in experiment [6]. Further, the GI50 is 16.7 µM (inactive) in [7]; 14.8 µM (inactive) in experiment [8]; 24.9 µM (inactive) in experiment [9]; 19.1 µM (inactive) in [10]; 16.4 µM (inactive) in experiment [11]; 16.1 µM (inactive) in experiment [12]. Further, the GI50 in experiment [13] was 17.8 µM (inactive); in experiment [14], 18.8 µM (inactive); in experiment [15], 12.3 µM (inactive); in [16], 20.8 µM (inactive); in experiment [17] it was 18.8 µM (inactive); in experiment [18], 19.1 µM (inactive). Besides, the values for the GI50 in experiment [19] and in experiment [20] were 12.8 µM (inactive) and 16.4 µM (inactive), respectively.

(Values after ChEMBL document CHEMBL1201862, “PubChem BioAssay data set” (2004).)
